US12503452B2 (Curza Global, LLC, priority 2019, dated 2025)
Structures can show the parent of a compound that is named as a salt. Where two headings read alike, the source gives them in different places.

Assays:
[1] = test system: E. coli S30 extract (bacterial protein synthesis); experiment: E. coli S30 extract coupled transcription-translation luciferase assay (inhibition of bacterial protein synthesis); type: biochemical; details: class by IC50 or % inhibition @ 1 μM, read-out: S30 IC50 (μM/% inhib.)
Procedure, shortened: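 Luminescent read-out of luciferase made from pBESTluc DNA by E. coli S30 extract after 1 h at 37 °C with compound in an 8-point 2-fold series. Background came from no-DNA reactions. Percent inhibition was calculated against water-only controls.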

P. aeruginosa (Pa) = experiment: Broth microdilution minimum inhibitory concentration (MIC); type: cell-based; details: for MIC: Pseudomonas aeruginosa, read-out: Pa MIC + bicarb
Procedure, shortened: (§1)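 Two-fold compound series, 8 points in triplicate; medium CAMHB ± NaHCO3 (6.25 or 25 mM final) or ± 0–50% heat-inactivated human serum; inoculum 5×10^4 CFU/well; growth-method 0.5 McFarland suspensions; modified CLSI M07-A9.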

E. faecalis (Ef) = experiment: as above; type: cell-based; details: for MIC: Enterococcus faecalis, read-out: Ef + bicarb MIC
Procedure, shortened: as §1

S. aureus (Sa) = experiment: as above; type: cell-based; details: for MIC: Staphylococcus aureus, read-out: Sa + bicarb MIC
Procedure, shortened: as §1

A. baumannii (Ab) = experiment: as above; type: cell-based; details: for MIC: Acinetobacter baumannii, read-out: Ab + bicarb MIC
Procedure, shortened: as §1

E. coli (Ec) = experiment: as above; type: cell-based; details: for MIC: Escherichia coli, read-out: E. coli + bicarb MIC
Procedure, shortened: as §1

[2] = target: Rabbit Reticulocyte Lysate (eukaryotic protein synthesis); experiment: Rabbit reticulocyte lysate luciferase assay (inhibition of eukaryotic protein synthesis); type: biochemical; details: class by IC50 or % inhibition @ 1 μM, read-out: Rabbit reticulocyte IC50 (μM/% inhib.)
Procedure, shortened: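 Compounds were tested in 8-point 2-fold dilution series for blocking luciferase synthesis in nuclease-treated rabbit reticulocyte lysate (30° C., 90 minutes). Luminescence read-out, corrected by no-RNA background, was expressed as % inhibition against water-only reactions.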

[3] = P. aeruginosa, growth medium with sodium bicarbonate
[4] = E. faecalis, growth medium with sodium bicarbonate
[5] = S. aureus, growth medium with sodium bicarbonate
[6] = A. baumannii, growth medium with sodium bicarbonate
[7] = E. coli, growth medium with sodium bicarbonate

| SMILES | IC50 [1] [µM] | MIC (P. aeruginosa (Pa); [3]) [µg/mL] | MIC (E. faecalis (Ef); [4]) [µg/mL] | MIC (S. aureus (Sa); [5]) [µg/mL] | MIC (A. baumannii (Ab); [6]) [µg/mL] | MIC (E. coli (Ec); [7]) [µg/mL] | IC50 [2] [µM] | Pa MIC + bicarb (P. aeruginosa (Pa); [3]) | Ef + bicarb MIC (E. faecalis (Ef); [4]) | Sa + bicarb MIC (S. aureus (Sa); [5]) | Ab + bicarb MIC (A. baumannii (Ab); [6]) | E. coli + bicarb MIC (E. coli (Ec); [7]) | MIC (P. aeruginosa (Pa)) [µg/mL] | MIC (E. faecalis (Ef)) [µg/mL] | MIC (S. aureus (Sa)) [µg/mL] | MIC (A. baumannii (Ab)) [µg/mL] | MIC (E. coli (Ec)) [µg/mL] |
| --- | --- | --- | --- | --- | --- | --- | --- | --- | --- | --- | --- | --- | --- | --- | --- | --- | --- |
| CCN(Cc1ccc(-n2ccc(NC(=O)N3CCN(C(=O)C(C)(C)N)C[C@H]3C)nc2=O)cc1)C1CCC(N)CC1 (stereo partly shown) [Compound 275] | < 0.5 | 8 to 32 | < 8 | < 8 | < 8 | < 8 | > 1 |  |  |  |  |  |  |  |  |  |  |
| CCN(Cc1ccc(-n2ccc(NC(=O)N3CCN(C(=O)C(C)(C)N)CC3)nc2=O)cc1C(F)(F)F)C1CCC(N)CC1 (stereo not shown) [Compound 276] | 0.5 to 1 | > 32 | < 8 | < 8 | > 32 | < 8 | > 1 |  |  |  |  |  |  |  |  |  |  |
| C[C@](N)(CO)C(=O)N1CCN(C(=O)Nc2ccn(-c3ccc(CN(CC4CC4)C4CCC(N)CC4)cc3)c(=O)n2)CC1 (stereo partly shown) [Compound 277] | < 0.5 | > 32 | < 8 | < 8 | > 32 | < 8 | > 1 |  |  |  |  |  |  |  |  |  |  |
| CN(Cc1ccc(-n2ccc(NC(=O)N3CCN(C(=O)C(C)(C)N)CC3)nc2=O)cc1F)C1CCC(N)CC1 (stereo not shown) [Compound 278] | < 0.5 | 8 to 32 | < 8 | < 8 | 8 to 32 | < 8 | > 1 |  |  |  |  |  |  |  |  |  |  |
| CC(Cc1ccc(-n2ccc(NC(=O)N3CCN(C(=O)C(C)(C)N)CC3)nc2=O)cc1)N(C)C[C@H]1CCC[C@H](N)C1 (stereo partly shown) [Compound 279] | > 1 | > 32 | 8 to 32 | < 8 | > 32 | < 8 | > 1 |  |  |  |  |  |  |  |  |  |  |
| CCN(C[C@H]1CCC[C@H](N)C1)C(C)Cc1ccc(-n2ccc(NC(=O)N3CCN(C(=O)C(C)(C)N)CC3)nc2=O)cc1 (stereo partly shown) [Compound 280] | 0.5 to 1 | > 32 | < 8 | < 8 | > 32 | < 8 | > 1 |  |  |  |  |  |  |  |  |  |  |
| CCN(C(C)Cc1ccc(-n2ccc(NC(=O)N3CCN(C(=O)C(C)(C)N)CC3)nc2=O)cc1)C1CCC(N)CC1 (stereo not shown) [Compound 281] | < 0.5 |  |  | < 8 | > 32 | < 8 | > 1 | ++ (An MIC value (μg/mL) that is 8 μg/mL or greater and less than 32 μg/mL) | +++ (An MIC value (μg/mL) that is less than 8 μg/mL) |  |  |  |  |  |  |  |  |
| CCN(C(C)Cc1ccc(-n2ccc(NC(=O)N3CCN(C(=O)C(C)(C)N)CC3)nc2=O)cc1)C1CCC(N)CC1 (stereo not shown) [Compound 282] | > 1 |  |  |  |  |  | > 1 | + (An MIC value (μg/mL) that is 32 μg/mL or greater) | + (An MIC value (μg/mL) that is 32 μg/mL or greater) | +++ (An MIC value (μg/mL) that is less than 8 μg/mL) | + (An MIC value (μg/mL) that is 32 μg/mL or greater) | +++ (An MIC value (μg/mL) that is less than 8 μg/mL) |  |  |  |  |  |
| Cc1cc(-n2ccc(NC(=O)N3CCN(C(=O)C(C)(C)N)CC3)nc2=O)ccc1CNC1CCC(N)CC1 (stereo not shown) [Compound 283] | < 0.5 | > 32 | < 8 | < 8 | > 32 | < 8 | > 1 |  |  |  |  |  |  |  |  |  |  |
| Cc1cc(-n2ccc(NC(=O)N3CCN(C(=O)C(C)(C)N)CC3)nc2=O)ccc1CN(C)C1CCC(N)CC1 (stereo not shown) [Compound 284] | < 0.5 | 8 to 32 | < 8 | < 8 | < 8 | < 8 | > 1 |  |  |  |  |  |  |  |  |  |  |
| CCN(Cc1ccc(-n2ccc(NC(=O)N3CCN(C(=O)C(C)(C)N)CC3)nc2=O)cc1C)C1CCC(N)CC1 (stereo not shown) [Compound 285] | < 0.5 | 8 to 32 | < 8 | < 8 | < 8 | < 8 | > 1 |  |  |  |  |  |  |  |  |  |  |
| CN(Cc1ccc(-n2ccc(NC(=O)N3CCN(C(=O)[C@@](C)(N)CO)CC3)nc2=O)cc1)C1CCC(N)CC1 (stereo partly shown) [Compound 286] | < 0.5 | > 32 | < 8 | < 8 | > 32 | < 8 | > 1 |  |  |  |  |  |  |  |  |  |  |
| CCN(Cc1ccc(-n2ccc(NC(=O)N3CCN(C(=O)[C@@](C)(N)CO)CC3)nc2=O)cc1)C1CCC(N)CC1 (stereo partly shown) [Compound 287] | < 0.5 | 8 to 32 | < 8 | < 8 | > 32 | < 8 | > 1 |  |  |  |  |  |  |  |  |  |  |
| C[C@](N)(CO)C(=O)N1CCN(C(=O)Nc2ccn(-c3ccc(CNC4CCC(N)CC4)cc3)c(=O)n2)CC1 (stereo partly shown) [Compound 288] | < 0.5 | > 32 | < 8 | < 8 | > 32 | < 8 | > 1 |  |  |  |  |  |  |  |  |  |  |
| NC1CCN(Cc2ccc(-n3ccc(NC(=O)N4CC5(CC(N)C5)C4)nc3=O)cc2)CC1 [Compound 289] | 0.5 to 1 | > 32 | > 32 | < 8 | > 32 | < 8 | > 1 |  |  |  |  |  |  |  |  |  |  |
| CC(CN1CCC[C@H](N)CC1)c1ccc(-n2ccc(NC(=O)N3CCN(C(=O)C(C)(C)N)CC3)nc2=O)cc1 (stereo partly shown) [Compound 290] | 0.5 to 1 | > 32 | < 8 | < 8 | < 8 | < 8 | > 1 |  |  |  |  |  |  |  |  |  |  |
| CC(C)(N)C(N1CCN(C(=O)Nc2ccn(-c3ccc(CN4CCC(N)CC4)cc3)c(=O)n2)CC1)C(F)(F)F (stereo not shown) [Compound 291, hydrochloride salt] | > 1 |  |  |  |  |  | > 1 |  |  |  |  |  | > 32 | 8 to 32 | < 8 | 8 to 32 | 8 to 32 |
| Cc1cc(NC(=O)N2CCN(C(=O)C(C)(C)N)CC2)nc(=O)n1-c1ccc(CN2CCC(N)CC2)cc1 [Compound 292, hydrochloride salt] | > 1 |  |  |  |  |  | > 1 |  |  |  |  |  | > 32 | > 32 | > 32 | > 32 | > 32 |
| NC1CCN(Cc2ccc(-n3ccc(NC(=O)N4C[C@H]5C[C@@H](N)C[C@H]5C4)nc3=O)cc2)CC1 [Compound 295, trifluoroacetate salt] | > 1 |  |  |  |  |  | > 1 |  |  |  |  |  | > 32 | > 32 | > 32 | > 32 | > 32 |
